From PubChem BioAssay AID256 (DTP/NCI, 2004)
“And” between values parts separate entries of the source, which are not always exact repeats. Identical values can stand only once. Toxic doses and inconclusive results are not listed.

System: CD2F1 mice, L1210 leukemia ip, survival T/C
Assay: NCI In Vivo Anticancer Drug Screen. Data for tumor model L1210 Leukemia (intraperitoneal) in CD2F1 (CDF1) mice
Conditions: endpoint: mean survival time, higher = longer survival
Procedure, shortened: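 Mice carrying a transplanted tumor received test compound or vehicle alone. The value is the measurement in the treated group divided by that in the vehicle-treated control group.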

[1] = dose: 100.0 mg/kg/injection, schedule: Q01DX001 (ip), vehicle: saline with Tween-80
[2] = dose: 100.0 mg/kg/injection, schedule: Q01DX009 (ip), vehicle: saline with Tween-80
[3] = dose: 200.0 mg/kg/injection, schedule: Q01DX001 (ip), vehicle: saline with Tween-80
[4] = dose: 200.0 mg/kg/injection, schedule: Q01DX009 (ip), vehicle: saline with Tween-80
[5] = dose: 400.0 mg/kg/injection, schedule: Q01DX001 (ip), vehicle: saline with Tween-80
[6] = dose: 400.0 mg/kg/injection, schedule: Q01DX009 (ip), vehicle: saline with Tween-80
[7] = dose: 100.0 mg/kg/injection, schedule: Q04DX003 (ip), vehicle: saline
[8] = dose: 200.0 mg/kg/injection, schedule: Q04DX003 (ip), vehicle: saline
[9] = dose: 6.25 mg/kg/injection, schedule: Q04DX003 (ip), vehicle: saline
[10] = dose: 12.5 mg/kg/injection, schedule: Q04DX003 (ip), vehicle: saline
[11] = dose: 25.0 mg/kg/injection, schedule: Q04DX003 (ip), vehicle: saline
[12] = dose: 400.0 mg/kg/injection, schedule: Q04DX003 (ip), vehicle: saline
[13] = dose: 50.0 mg/kg/injection, schedule: Q01DX009 (ip), vehicle: Klucel (hydroxypropylcellulose) (HPC)
[14] = dose: 200.0 mg/kg/injection, schedule: Q01DX009 (ip), vehicle: Klucel (hydroxypropylcellulose) (HPC)
[15] = dose: 25.0 mg/kg/injection, schedule: Q01DX009 (ip), vehicle: saline with Tween-80
[16] = dose: 50.0 mg/kg/injection, schedule: Q01DX009 (ip), vehicle: saline with Tween-80
[17] = dose: 100.0 mg/kg/injection, schedule: Q04DX003 (ip), vehicle: saline with Tween-80
[18] = dose: 100.0 mg/kg/injection, schedule: Q04DX003 (ip), vehicle: other

O=C(O)/C=C/C(=O)Nc1ccc(C(=O)O)cc1
T/C [1]: 94 % of control | T/C [2]: 91 % of control | T/C [3]: 92 % of control | T/C [4]: 96 % of control | T/C [5]: 92 % of control | T/C [6]: 89 % of control

Cc1ccc(C(C)C)c(OCC2=NCCN2C)c1
T/C [7]: 106 % of control | T/C [8]: 106 % of control

O=C(COc1ccc(Cl)c(Cl)c1)NCCc1ccccn1
T/C [2]: 95 % of control | T/C [4]: 97 % of control | T/C [6]: 95 % of control

CC([NH-])CC(C)[NH-].O=[N+]([O-])O.O=[N+]([O-])O.[Pt+2] (stereo not given)
T/C [9]: 154 % of control | T/C [10]: 247 % of control | T/C [11]: 207 % of control

CC(C)NC(=O)C1CC2c3cccc4[nH]c(Br)c(c34)CC2N(C)C1 (stereo not given)
T/C (dose: 5.0 mg/kg/injection, schedule: Q01DX009 (ip), vehicle: saline with Tween-80): 90 % of control | T/C (dose: 10.0 mg/kg/injection, schedule: Q01DX009 (ip), vehicle: saline with Tween-80): 104 % of control | T/C (dose: 20.0 mg/kg/injection, schedule: Q01DX009 (ip), vehicle: saline with Tween-80): 94 % of control

COC(=O)C(C)CC(C)(C=O)OC (stereo not given)
T/C [2]: 102 % of control | T/C [4]: 96 % of control | T/C [6]: 96 % of control

O=C1NC(CN2CCOCC2)C(=O)NC1CN1CCOCC1 (stereo not given)
T/C (dose: 3.13 mg/kg/injection, schedule: Q01DX009 (ip), vehicle: water): 105 % of control | T/C (dose: 6.25 mg/kg/injection, schedule: Q01DX009 (ip), vehicle: water): 105 % of control | T/C (dose: 12.5 mg/kg/injection, schedule: Q01DX009 (ip), vehicle: water): 103 % of control | T/C (dose: 25.0 mg/kg/injection, schedule: Q01DX009 (ip), vehicle: water): 100 % of control | T/C (dose: 50.0 mg/kg/injection, schedule: Q01DX009 (ip), vehicle: water): 101 % of control | T/C (dose: 100.0 mg/kg/injection, schedule: Q01DX009 (ip), vehicle: water): 106 % of control

O=C(O/N=C(\CN1CCCC1)c1ccc(Cl)cc1)c1ccccc1
T/C (dose: 100.0 mg/kg/injection, schedule: Q01DX001 (ip), vehicle: Klucel (hydroxypropylcellulose) (HPC)): 95 % of control | T/C (dose: 200.0 mg/kg/injection, schedule: Q01DX001 (ip), vehicle: Klucel (hydroxypropylcellulose) (HPC)): 95 % of control | T/C (dose: 400.0 mg/kg/injection, schedule: Q01DX001 (ip), vehicle: Klucel (hydroxypropylcellulose) (HPC)): 93 % of control

CN(C)P1(N)=NP(N)(N(C)C)=NP(N)(N(C)C)=N1 (stereo not given)
T/C [7]: 100 % of control | T/C [8]: 94 % of control | T/C [12]: 96 % of control

CCOC(=O)CCC(NC(=O)c1ccc(N(CC)Cc2cnc3nc(N)nc(N)c3n2)cc1)C(=O)OCC (stereo not given)
T/C (dose: 1.56 mg/kg/injection, schedule: Q01DX009 (ip), vehicle: Klucel (hydroxypropylcellulose) (HPC)): 152 % of control

CC(=O)OC1COCOC1C1OCOCC1OC(C)=O (stereo not given)
T/C [13]: 102 % of control | T/C (dose: 100.0 mg/kg/injection, schedule: Q01DX009 (ip), vehicle: Klucel (hydroxypropylcellulose) (HPC)): 102 % of control | T/C [14]: 110 % of control

Nc1nc(=O)[nH]c(N)c1N
T/C (dose: 100.0 mg/kg/injection, schedule: Q04DX002 (ip), vehicle: saline): 97 % of control | T/C (dose: 200.0 mg/kg/injection, schedule: Q04DX002 (ip), vehicle: saline): 117 % of control

CC1(C)C2CC=C(CCOC(=S)S)C1C2.[Ni] (stereo not given)
T/C [15]: 96 % of control | T/C [16]: 90 % of control | T/C [2]: 96 % of control | T/C [17]: 91 % of control | T/C (dose: 200.0 mg/kg/injection, schedule: Q04DX003 (ip), vehicle: saline with Tween-80): 93 % of control

CC1(C)CC(=O)N(Cc2ccccc2)N1C(=O)c1ccccc1
T/C [1]: 113 % of control | T/C [3]: 106 % of control | T/C [5]: 101 % of control

CCOC(C)C(O)(c1ccc(N(C)C)cc1)c1ccc(N(C)C)cc1 (stereo not given)
T/C [18]: 95 % of control | T/C (dose: 200.0 mg/kg/injection, schedule: Q04DX003 (ip), vehicle: other): 91 % of control | T/C (dose: 400.0 mg/kg/injection, schedule: Q04DX003 (ip), vehicle: other): 97 % of control

Cc1c(O)c2c(c(O)c1Cc1cccc(C#N)c1)C(=O)c1ccccc1C2=O
T/C (dose: 12.5 mg/kg/injection, schedule: Q01DX009 (ip), vehicle: Klucel (hydroxypropylcellulose) (HPC)): 89 % of control | T/C (dose: 25.0 mg/kg/injection, schedule: Q01DX009 (ip), vehicle: Klucel (hydroxypropylcellulose) (HPC)): 90 % of control | T/C [13]: 90 % of control | T/C [14]: 89 % of control

Oc1ccc(CCl)cc1O
T/C (dose: 25.0 mg/kg/injection, schedule: Q01DX001 (ip), vehicle: saline with Tween-80): 107 % of control | T/C (dose: 50.0 mg/kg/injection, schedule: Q01DX001 (ip), vehicle: saline with Tween-80): 100 % of control | T/C [1]: 89 % of control and 103 % of control

Cc1c[nH]c(=S)[nH]c1=O.[Pd]
T/C (dose: 3.12 mg/kg/injection, schedule: Q04DX003 (ip), vehicle: saline): 94 % of control | T/C [9]: 102 % of control | T/C [10]: 97 % of control | T/C [11]: 102 % of control | T/C (dose: 50.0 mg/kg/injection, schedule: Q04DX003 (ip), vehicle: saline): 100 % of control | T/C [7]: 100 % of control | T/C [8]: 96 % of control

Cc1c2ccccc2c(C)c2c1ccc1ccccc12
T/C [15]: 106 % of control | T/C [17]: 106 % of control | T/C (dose: 125.0 mg/kg/injection, schedule: Q04DX003 (ip), vehicle: Klucel (hydroxypropylcellulose) (HPC)): 121 % of control

c1cc2c3c(c1)nc(CCCc1nc4cccc5c4n1CCC5)n3CCC2
T/C [15]: 103 % of control | T/C [16]: 96 % of control | T/C [2]: 94 % of control

C[SeH]C.C[SeH]C.O.O=S(=O)(O)O.[Pt]
T/C (dose: 12.5 mg/kg/injection, schedule: Q04DX003 (ip), vehicle: other): 89 % of control | T/C (dose: 25.0 mg/kg/injection, schedule: Q04DX003 (ip), vehicle: other): 101 % of control | T/C (dose: 50.0 mg/kg/injection, schedule: Q04DX003 (ip), vehicle: other): 103 % of control | T/C [18]: 107 % of control

COc1ccccc1C1N(C)CCCN1C
T/C (dose: 6.25 mg/kg/injection, schedule: Q01DX009 (ip), vehicle: saline with Tween-80): 100 % of control | T/C (dose: 12.5 mg/kg/injection, schedule: Q01DX009 (ip), vehicle: saline with Tween-80): 102 % of control | T/C [15]: 102 % of control

COC(=O)N1c2ccccc2C23CCN4CCCC5(CCC12C(C(=O)O)C5)C43 (stereo not given)
T/C (dose: 75.0 mg/kg/injection, schedule: Q01DX001 (ip), vehicle: other): 93 % of control | T/C (dose: 150.0 mg/kg/injection, schedule: Q01DX001 (ip), vehicle: other): 101 % of control | T/C (dose: 300.0 mg/kg/injection, schedule: Q01DX001 (ip), vehicle: other): 107 % of control

CCOC(=O)C1CN(C(=O)OCC)CC1=O (stereo not given)
T/C (dose: 50.0 mg/kg/injection, schedule: Q01DX001 (ip), vehicle: other): 103 % of control | T/C (dose: 100.0 mg/kg/injection, schedule: Q01DX001 (ip), vehicle: other): 106 % of control | T/C (dose: 200.0 mg/kg/injection, schedule: Q01DX001 (ip), vehicle: other): 107 % of control | T/C (dose: 400.0 mg/kg/injection, schedule: Q01DX001 (ip), vehicle: other): 109 % of control

Cc1c(O)ccc([N+](=O)[O-])c1O
T/C (dose: 12.5 mg/kg/injection, schedule: Q04DX003 (ip), vehicle: saline with Tween-80): 107 % of control | T/C (dose: 25.0 mg/kg/injection, schedule: Q04DX003 (ip), vehicle: saline with Tween-80): 102 % of control

CCCN(CCC)S(=O)(=O)c1ccc(NC(=O)OC2CCC3(C)C(=CCC4C3CCC3(C)C(C(C)CCCC(C)C)CCC43)C2)cc1 (stereo not given)
T/C (dose: 100.0 mg/kg/injection, schedule: Q01DX001 (sc), vehicle: steriod suspending solution): 105 % of control | T/C (dose: 200.0 mg/kg/injection, schedule: Q01DX001 (sc), vehicle: steriod suspending solution): 97 % of control | T/C (dose: 400.0 mg/kg/injection, schedule: Q01DX001 (sc), vehicle: steriod suspending solution): 101 % of control

C=CCNC(=O)C[n+]1cccc(C(=O)NC)c1
T/C [7]: 100 % of control | T/C [8]: 102 % of control | T/C [12]: 102 % of control

Nc1nc(S)c(N)c(=S)[nH]1
T/C (dose: 75.0 mg/kg/injection, schedule: Q01DX001 (ip), vehicle: carboxymethylcellulose (CMC)): 102 % of control

CN(C)c1ccc(N=C2CC(=Nc3ccc(N(C)C)cc3)c3ccccc3C2=O)cc1
T/C [7]: 104 % of control | T/C [8]: 96 % of control | T/C [12]: 101 % of control
